According to patent US8796323B2, “Defensin-like molecules as novel antimicrobial agents” (University of Maryland, Baltimore, priority 2010, dated 2014):

Tested on: Staphylococcus aureus ATCC 29213
Test: 96-well turbidimetric antibacterial activity assay of HNP1, with or without Lipid II synthesis inhibitors
Assay type: cell-based
Description: The antibacterial activity of HNP1 against Staphylococcus aureus ATCC 29213 was carried out in a 96-well turbidimetric assay essentially as described in Ericksen, B., et al., 2005, “Antibacterial activity and specificity of the six human {alpha}-defensins.” Lipid II levels in S. aureus were manipulated by the addition of three different inhibitors of cell wall synthesis: bacitracin (250 μg/ml), D-cycloserine (64 μg/ml) and fosfomycine (250 μg/ml). Bacterial cultures were pretreated with these compounds for 30 min under shaking at 37° C. […] Bacterial growth was monitored for 12 hours and data were analyzed as described.
To examine whether the observed interaction between HNP1 and Lipid II is functionally relevant in the environment of the membrane, the inventors determined the ability of HNP1 to kill S. aureus with altered levels of Lipid II. Three different inhibitors of cell wall synthesis, fosfomycine, D-cycloserine, and bacitracin, were used to reduce the lipid II levels in S. aureus cells. Bacitracin binds directly to undecaprenyl pyrophosphate, the portion of lipid II that remains in the membrane once GlcNAc-MurNAc is polymerized, and prevents its use in subsequent cycles of lipid II synthesis. Fosfomycine is an inhibitor of MurA, the enzyme responsible for the first step in peptidoglycan synthesis. D-Cycloserine inhibits both alanine racemase and D-Ala-D-Ala ligase, two enzymes required for the synthesis of the D-Ala-D-Ala dipeptide of lipid II. All three inhibitors thus block the synthesis of lipid II (Lunde, C. S., et al., 2009, “Telavancin disrupts the functional integrity of the bacterial membrane through targeted interaction with the cell wall precursor lipid II,” Antimicrob Agents Chemother 53:3375-3383.) S. aureus cells were exposed to each of the Lipid II synthesis inhibitors for 30 min and subsequently exposed to HNP1 at concentrations ranging from 256 to 1 μg/ml for 15 min (FIG. 4).
Survival curves of S. aureus ATCC 29213 exposed to HNP1 at concentrations varying two-fold from 1 to 256 μg/ml. […] Points scored as zero survival could not be plotted.

“HNP1: α-defensin Human Neutrophil Peptide 1, chemically synthesized and folded” was tested. Which “killing of S. aureus” value (15 min exposure to HNP1) did it give?
The value was “efficiently killed S. aureus”.

What about the “killing of S. aureus by HNP-1 after pre-treatment with Lipid II synthesis inhibitors, 2 hours exposure” value (HNP-1 exposure 2 hours, data not shown) of the same substance?
Its value is “no difference in bacterial killing”.

And the “killing of S. aureus by HNP1 after pre-treatment with Lipid II synthesis inhibitors” value (fosfomycine, D-cycloserine, bacitracin 30 min pre-treatment, HNP1 15 min)?
Its value is “attenuated killing of S. aureus by HNP1 markedly”.
